Data reported in ChEMBL document CHEMBL5550165, “Novel quinoxaline analogs as telomeric G-quadruplex ligands exert antitumor effects related to enhanced immunomodulation” (Eur J Med Chem, 2024).
Activity calls are given as the source filed them.

Legend:
MDA-MB-231 = assay: Induction of immunogenic cell death in human MDA-MB-231 cells assessed as increase in HMGB1 release at 1 to 4 uM incubated for 24 hrs by ELISA; type: functional, cell-based; conditions: dose 1-4 µM
4T1 [1] = assay: Antitumor activity against mouse 4T1 cells implanted in BALB/c mouse assessed as reduction in tumor volume at 10 mg/kg,ip every other day for 14 days; type: functional, organism-based; conditions: time 14.0 day
4T1 [2] = assay: Antitumor immunity against mouse 4T1 cells implanted in BALB/c mouse assessed as increase in proportion of CD8+ T cells in spleen at 10 mg/kg,ip every other day for 14 days by flow cytometry; type: functional, organism-based; conditions: time 14.0 day
4T1 [3] = assay: Antitumor immunity against mouse 4T1 cells implanted in BALB/c mouse assessed as increase in proportion of CD8+ T cells in tumor at 10 mg/kg,ip every other day for 14 days by flow cytometry; type: functional, organism-based; conditions: time 14.0 day

Measured: Activity

CN(C)CCN(C)c1ccc(-c2nc3ccc(C(F)(F)F)cc3nc2-c2ccc(N(C)CCN(C)C)cc2)cc1
active: all assays above
